Measurements published in patent publication US7868204B2, “Inhibitors of histone deacetylase” (MethylGene Inc., priority 2001, dated 2011).
Read-outs that look alike come from different tables or passages of the source.

Experiments:
[1] = test system: acetylated histone H-4 in T24 human bladder cancer cells; experiment: Histone H4 acetylation in whole cells by immunoblots; assay type: cell-based; details: 16 h
Method in brief: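 T24 cells were treated with HDAC inhibitors for 16 h; […] total histone protein was resolved by SDS/PAGE and immunoblotted with polyclonal anti-acetylated H4 antibody. ECL detection, with signal quantified by densitometry.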

[2] = target: T1, cloned recombinant human HDAC-1 (Homo sapiens, UniProt Q13547); experiment: Human HDAC-1 enzyme inhibition, Assay 1 ([3H]-acetylated histone substrate, scintillation counting); assay type: biochemical
T1 construct: made in house; host or cells: Baculovirus insect cell expression system
T1 sequence (Q13547 whole entry): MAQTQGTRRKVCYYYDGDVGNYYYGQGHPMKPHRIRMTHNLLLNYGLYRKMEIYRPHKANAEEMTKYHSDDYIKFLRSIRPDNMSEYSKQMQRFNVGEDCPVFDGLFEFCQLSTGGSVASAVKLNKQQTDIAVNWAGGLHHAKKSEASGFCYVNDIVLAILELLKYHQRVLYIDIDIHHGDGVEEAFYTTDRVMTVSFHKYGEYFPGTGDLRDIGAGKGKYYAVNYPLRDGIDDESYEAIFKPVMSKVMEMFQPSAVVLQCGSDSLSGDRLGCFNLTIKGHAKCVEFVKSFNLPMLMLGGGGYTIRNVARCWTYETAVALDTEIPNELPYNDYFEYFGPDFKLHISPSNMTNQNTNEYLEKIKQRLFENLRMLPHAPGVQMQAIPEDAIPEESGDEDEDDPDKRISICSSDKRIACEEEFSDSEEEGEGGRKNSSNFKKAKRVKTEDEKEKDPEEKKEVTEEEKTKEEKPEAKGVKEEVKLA
Method in brief: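 Recombinant human HDAC-1 from baculovirus-infected insect cells, preincubated with compound 30 min at 4° C. before reaction. Released [3H]-acetic acid extracted with ethyl acetate and counted by scintillation. IC50 taken from dose-response curves as concentration giving half-maximal inhibition.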

HCT116 cells = experiment: MTT assay; assay type: cell-based; details: Homo sapiens, HCT116 cells, 72 hours
Method in brief: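 Cells plated one day before dosing, then exposed to compound 72 h at 37 °C, 5% CO2. MTT at 0.5 mg/ml final for 4 h, solubilized in DMF/SDS buffer pH 4.7; OD converted to cell number from a standard growth curve.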

[3] = T-24, Table 5b, read-out: H4Ac (T24) EC50
[4] = Table 5b, read-out: Human HDAC-1 IC50
[5] = T-24, Table 5F, read-out: H4 Ac (T24) EC50
[6] = Table 5F, read-out: Human HDAC-1 IC50
[7] = T-24, Table 5a, read-out: H4Ac (T24) EC50
[8] = Table 5a, read-out: Human HDAC-1 IC50
[9] = T-24, Table 5d, read-out: H4Ac(T24) EC50
[10] = Table 5d, read-out: HDAC-1 IC50

Compound | EC50 [1, 5] | IC50 [2, 6] | IC50 (HCT116 cells; HCT-116, 72 h, Table 5F) | further results
CN(Cc1ccc(C(=O)Nc2ccccc2N)cc1)c1nc(N)nc(NC2Cc3ccccc3C2)n1 [Cpd 216] | – | – | – | EC50 [1, 3]: 2 µM; IC50 [2, 4]: 0.5 µM; IC50 (HCT116 cells; HCT-116, 72 h, Table 5b): 0.4 µM
COc1ccc(-c2cc(Cl)nc(NCc3ccc(C(=O)Nc4ccccc4N)cc3)n2)cc1OC [Cpd 439] | 1 µM | 3 µM | 0.4 µM | –
Nc1ccccc1NC(=O)c1ccc(CSc2cccc3cccnc23)cc1 [Cpd 391, N-(2-Amino-phenyl)-4-(quinolin-8-ylsulfanylmethyl)-benzamide] | 3 µM | 1 µM | 0.9 µM | –
Nc1ccccc1NC(=O)c1ccc(Cc2coc3ccccc3c2=O)cc1 [compound 262, N-(2-Amino-phenyl)-4-(4-oxo-4H-chromen-3-ylmethyl)-benzamide] | 1 µM | 0.5 µM | 0.3 µM | –
Nc1ccccc1NC(=O)c1ccc(CC2Cc3ccccc3C2=O)cc1 (stereo not drawn) [compound 272, N-(2-Amino-phenyl)-4-(1-oxo-indan-2-ylmethyl)-benzamide] | < 1 µM | 2 µM | 0.6 µM | –
Nc1ccccc1NC(=O)c1ccc(NCc2ccc(F)cc2)nc1 [Cpd 175] | – | – | – | EC50 ([1]; T-24, Table 5E, read-out: H4 Ac (T24) EC50): 3 µM; IC50 ([2]; Table 5E, read-out: Human HDAC-1 IC50): 4 µM; IC50 (HCT116 cells; HCT-116, 72 h, Table 5E): 0.5 µM
Nc1ccccc1NC(=O)c1ccc(CNc2ccc3oc(SCc4cccnc4)nc3c2)cc1 [Cpd 452, N-(2-Amino-phenyl)-4-{[2-(pyridin-3-ylmethylsulfanyl)-benzooxazol-5-ylamino]-methyl}-benzamide] | 2 µM | 3 µM | 0.3 µM | –
COc1cc(C#N)c(NCc2ccc(C(=O)Nc3ccccc3N)cc2)cc1OC [Cpd 404] | 5 µM | 3 µM | 0.6 µM | –
Nc1ccccc1NC(=O)c1ccc(-c2ccc(C(=O)Nc3ccccc3N)cc2)cc1 [Cpd 375, Biphenyl-4,4′-dicarboxylic acid bis-[(2-amino-phenyl)-amide]] | 25 µM | 3 µM | 4 µM | –
COc1ccc(Cn2c(=O)n(Cc3ccc(C(=O)Nc4ccccc4N)cc3)c(=O)c3ccccc32)cc1 [Cpd 345, N-(2-Amino-phenyl)-4-[1-(4-methoxy-benzyl)-2,4-dioxo-1,4-dihydro-2H-quinazolin-3-ylmethyl]-benzamide] | 1 µM | 0.4 µM | 0.8 µM | –
COc1cc(NCc2ccc(-c3ccc(C(=O)Nc4ccccc4N)cc3)s2)cc(OC)c1OC [Cpd 323] | 1 µM | 1 µM | 0.6 µM | –
COc1ccc(NCc2ccc(-c3ccc(C(=O)Nc4ccccc4N)cc3)cc2)cc1 [Cpd 190, N-(2-Amino-phenyl)-4-[4-{(4-methoxy-phenylamino)-methyl}-phenyl]-benzamide] | > 5 µM | 3 µM | 1 µM | –
COc1ccc(C2C=CC(c3ccc(C(=O)Nc4ccccc4N)cc3)O2)cc1 (stereo not drawn) [Cpd 367, N-(2-Amino-phenyl)-4-[5-(4-methoxy-phenyl)-2,5-dihydro-furan-2-yl]-benzamide] | 5 µM | 6 µM | 2 µM | –
COc1ccc(NCc2ccc(C(=O)Nc3ccccc3N)cc2)c(OC)n1 [Cpd 388, N-(2-Amino-phenyl)-4-[(2,6-dimethoxy-pyridin-3-ylamino)-methyl]-benzamide] | 5 µM | 3 µM | 0.4 µM | –
Nc1ccccc1NC(=O)c1ccc(Cc2noc(-c3ccncc3)n2)cc1 [Cpd 358, N-(2-Amino-phenyl)-4-(5-pyridin-4-yl-[1,2,4]oxadiazol-3-ylmethyl)-benzamide] | 2 µM | 3 µM | 1 µM | –
Nc1nc(NCc2ccc(C(=O)Nc3ccccc3N)cc2)nc(NC2CCc3ccccc32)n1 (stereo not drawn) [Cpd 10, 4-{[4-amino-6-(1-indanyl-amino)-[1,3,5]-triazin-2-ylamino]-methyl}-N-(2-amino-phenyl)-benzamide] | – | – | – | EC50 [1, 7]: 1 µM; IC50 [2, 8]: 2 µM; IC50 (HCT116 cells; HCT-116, 72 h, Table 5a): 0.6 µM
Nc1ccccc1NC(=O)c1ccc(NCc2cccc(OC(F)(F)F)c2)cc1 [Cpd 425, N-(2-Amino-phenyl)-4-(3-trifluoromethoxy-benzylamino)-benzamide] | 5 µM | 2 µM | 0.6 µM | –
CC(=O)Nc1sc(Cc2ccc(C(=O)Nc3ccccc3N)cc2)cc1C(N)=O [Cpd 579, 2-Acetylamino-5-[4-(2-amino-phenyl-carbamoyl)-benzyl]-thiophene-3-carboxamide] | 1 µM | 2 µM | 0.5 µM | –
Nc1nc(NCCc2ccccc2)nc(NCc2ccc(C(=O)Nc3ccccc3N)cc2)n1 [Cpd 20, 4-[(4-Amino-6-phenethylamino-[1,3,5]triazin-2-ylamino)-methyl]-N-(2-amino-phenyl)-benzamide] | – | – | – | EC50 [1, 7]: 1 µM; IC50 [2, 8]: 0.5 µM; IC50 (HCT116 cells; HCT-116, 72 h, Table 5a): 0.3 µM
Nc1nc(NCc2ccc(C(=O)Nc3ccccc3N)cc2)nc(NC2Cc3ccccc3C2)n1 [Cpd 8, 4-{[4-Amino-6-(2-indanyl-amino)-[1,3,5]-triazin-2-yl-amino]-methyl}-N-(2-amino-phenyl)-benzamide] | – | – | – | EC50 [1, 7]: 1 µM; IC50 [2, 8]: 0.4 µM; IC50 (HCT116 cells; HCT-116, 72 h, Table 5a): 0.5 µM
COc1cc(/C=C\c2ccc(/C=C/C(=O)Nc3ccccc3N)cc2)cc(OC)c1OC [Cpd 537, N-(2-Amino-phenyl)-3-{4-[2-(3,4,5-trimethoxy-phenyl)-vinyl]-phenyl}-acrylamide] | – | – | – | EC50 [1, 9]: > 25 µM; IC50 [2, 10]: 11 µM; IC50 (HCT116 cells; HCT-116, Table 5d): 2 µM
Cc1cc(C)nc(NCc2ccc(C(=O)Nc3ccccc3N)cc2)n1 [Cpd 382, N-(2-Amino-phenyl)-4-[(4,6-dimethyl-pyrimidin-2-ylamino)-methyl]-benzamide] | 3 µM | 3 µM | 1 µM | –
COc1cccc(NCc2ccc(C(=O)Nc3ccccc3N)cc2)c1 [Cpd 430, N-(2-Amino-phenyl)-4-[(3-methoxy-phenylamino)-methyl]-benzamide] | 1 µM | 5 µM | 0.7 µM | –
Nc1ccccc1NC(=O)/C=C/c1ccc(NCCNc2ncccn2)nc1 [Cpd 521, N-(2-Amino-phenyl)-3-{6-[2-(pyrimidin-2-ylamino)-ethylamino]-pyridin-3-yl}-acrylamide] | – | – | – | EC50 [1, 9]: 10 µM; IC50 [2, 10]: 5 µM; IC50 (HCT116 cells; HCT-116, Table 5d): 2 µM
Nc1ccccc1NC(=O)c1ccc(CSc2nc3ccc(NCc4cccnc4)cc3s2)cc1 [Cpd 325, N-(2-Amino-phenyl)-4-{6-[(pyridin-3-ylmethyl)-amino]-benzothiazol-2-ylsulfanylmethyl}-benzamide] | 2 µM | 0.3 µM | 1 µM | –
C=CCNc1nc(NCc2ccc(C(=O)Nc3ccccc3N)cc2)nc(NC2Cc3ccccc3C2)n1 [Cpd 18] | – | – | – | EC50 [1, 7]: 3 µM; IC50 [2, 8]: 0.8 µM; IC50 (HCT116 cells; HCT-116, 72 h, Table 5a): 0.6 µM
Cc1nc2ccc(Br)cc2c(=O)n1Cc1ccc(C(=O)Nc2ccccc2N)cc1 [Cpd 342, N-(2-Amino-phenyl)-4-(6-bromo-2-methyl-4-oxo-4H-quinazolin-3-ylmethyl)-benzamide] | 1 µM | 3 µM | 0.4 µM | –
Nc1nc(NCc2ccccc2)nc(NCc2ccc(C(=O)Nc3ccccc3N)cc2)n1 [Cpd 29, 4-[(4-Amino-6-benzylamino-[1,3,5]triazin-2-ylamino)-methyl]-N-(2-amino-phenyl)-benzamide] | – | – | – | EC50 [1, 7]: 1 µM; IC50 [2, 8]: 2 µM; IC50 (HCT116 cells; HCT-116, 72 h, Table 5a): 2 µM
Nc1ccccc1NC(=O)c1ccc(CNc2ncnc(NCCc3ccccc3)n2)cc1 [Cpd 210] | – | – | – | EC50 [1, 3]: 1 µM; IC50 [2, 4]: 3 µM; IC50 (HCT116 cells; HCT-116, 72 h, Table 5b): 0.9 µM
